Where “and” joins values, the source holds several entries; their conditions need not be identical. Equal values may be shown once. Read-outs that look alike come from different tables or passages of the source.
Legend:
[1] = CIA study: pharmacokinetics / plasma concentration after oral administration; format: in vivo, Lewis rats; settings: for concentration at 2 h / concentration at 4 h / concentration at 6 h / concentration at 8 h / concentration at 0.25 h / concentration at 0.5 h / concentration at 1 h / concentration at 24 h / Plasma Concentration: oral 3 mg/kg
[2] = system: gastrointestinal mucosa / goblet cells; assay: Gastrointestinal histopathology (Dog PK Study #4); format: in vivo; settings: healthy beagle dogs; 10 mg/kg; Day 15
Description: Oral pan-BD BET inhibitors are known to negatively impact gastrointestinal mucosa through goblet cell toxicity, leading to related gastrointestinal adverse events in the clinic (Faivre et al., Nature, 578:306-310 (2020)). Therefore, the impact of Compound A on gastrointestinal toxicity and the mucosa was assessed in healthy beagle dogs as part of Dog PK Study #4, outlined in Experimental Method B.
Following completion of Dog PK study #4 on Day 15, animals were euthanized, and the large and small intestines were collected and fixed in 10% neutral buffered formalin. The tissues were then removed from the fixative, processed, embedded in paraffin, sectioned, and stained with hematoxylin and eosin, prior to microscopic examination.

[3] = Rat PK study #4 (Compound A PO 0.2 and 1.0 mg/kg, propylene glycol formulation); format: in vivo, Lewis rats; settings: 1 mg/kg and 10 mg/kg doses, rats

SMILES: Cn1cc(-c2ccccc2)c(-c2cn(C)c(=O)c3[nH]c(-c4cnn(C(F)(F)F)c4)cc23)cc1=O [Compound A, 6-methyl-4-(1-methyl-2-oxo-5-phenyl-1,2-dihydropyridin-4-yl)-2-(1-(trifluoromethyl)-1H-pyrazol-4-yl)-1,6-dihydro-7H-pyrrolo[2,3-c]pyridin-7-one]
- MRT inf ([1]; Lewis, rat, plasma, po, 3 mg/kg, CIA-induced animals, day 21, 3 mg/kg, individual test subjects, read-out: MRTInf—obs): 10.1 h
- half-life ([1]; Lewis, rat, plasma, po, 3 mg/kg, CIA-induced animals, day 21, 3 mg/kg, individual test subjects, read-out: T1/2 (converted)): 6.79 h
- Tmax ([1]; Lewis, rat, plasma, po, 3 mg/kg, CIA-induced animals, day 21, 3 mg/kg, individual test subjects, read-out: Tmax): 4 h
- concentration at 2 h ([1]; Lewis, rat, plasma, po, 3 mg/kg, day 0, 2 h, individual test subjects, read-out: Plasma concentration): 109 ng/mL
- concentration at 4 h ([1]; Lewis, rat, plasma, po, 3 mg/kg, day 0, 4 h, individual test subjects, read-out: Plasma concentration): 112 ng/mL
- concentration at 6 h ([1]; Lewis, rat, plasma, po, 3 mg/kg, day 0, 6 h, individual test subjects, read-out: Plasma concentration): 123 ng/mL
- concentration at 8 h ([1]; Lewis, rat, plasma, po, 3 mg/kg, day 0, 8 h, individual test subjects, read-out: Plasma concentration): 119 ng/mL
- concentration at 0.25 h ([1]; Lewis, rat, plasma, po, 3 mg/kg, day 0, time 0.25, read-out: Mean Concentration (average plasma concentration)): 16.8 ng/mL
- concentration at 0.5 h ([1]; Lewis, rat, plasma, po, 3 mg/kg, day 0, time 0.5, read-out: Mean Concentration (average plasma concentration)): 28.1 ng/mL
- concentration at 1 h ([1]; Lewis, rat, plasma, po, 3 mg/kg, day 0, time 1, read-out: Mean Concentration (average plasma concentration)): 51.1 ng/mL
- concentration at 2 h ([1]; Lewis, rat, plasma, po, 3 mg/kg, day 0, time 2, read-out: Mean Concentration (average plasma concentration)): 79 ng/mL
- concentration at 4 h ([1]; Lewis, rat, plasma, po, 3 mg/kg, day 0, time 4, read-out: Mean Concentration (average plasma concentration)): 90 ng/mL
- concentration at 6 h ([1]; Lewis, rat, plasma, po, 3 mg/kg, day 0, time 6, read-out: Mean Concentration (average plasma concentration)): 94 ng/mL
- concentration at 8 h ([1]; Lewis, rat, plasma, po, 3 mg/kg, day 0, time 8, read-out: Mean Concentration (average plasma concentration)): 90 ng/mL
- concentration at 24 h ([1]; Lewis, rat, plasma, po, 3 mg/kg, day 0, time 24): 22.3 ng/mL
- concentration at 0.25 h ([1]; Lewis, rat, plasma, po, 3 mg/kg, day 21, 0.25 h, individual test subjects, read-out: Plasma concentration): 18.4 ng/mL
- concentration at 0.5 h ([1]; Lewis, rat, plasma, po, 3 mg/kg, day 21, 0.5 h, individual test subjects, read-out: Plasma concentration): 22.2 ng/mL
- concentration at 1 h ([1]; Lewis, rat, plasma, po, 3 mg/kg, day 21, 1 h, individual test subjects, read-out: Plasma concentration): 33.6 ng/mL
- concentration at 2 h ([1]; Lewis, rat, plasma, po, 3 mg/kg, day 21, 2 h, individual test subjects, read-out: Plasma concentration): 33 ng/mL
- concentration at 4 h ([1]; Lewis, rat, plasma, po, 3 mg/kg, day 21, 4 h, individual test subjects, read-out: Plasma concentration): 48.3 ng/mL
- concentration at 6 h ([1]; Lewis, rat, plasma, po, 3 mg/kg, day 21, 6 h, individual test subjects, read-out: Plasma concentration): 44.2 ng/mL
- concentration at 8 h ([1]; Lewis, rat, plasma, po, 3 mg/kg, day 21, 8 h, individual test subjects, read-out: Plasma concentration): 30.9 ng/mL
- concentration at 0.25 h ([1]; Lewis, rat, plasma, po, 3 mg/kg, day 21, time 0.25, read-out: Mean Concentration (average plasma concentration)): 15.4 ng/mL
- concentration at 0.5 h ([1]; Lewis, rat, plasma, po, 3 mg/kg, day 21, time 0.5, read-out: Mean Concentration (average plasma concentration)): 21 ng/mL
- concentration at 1 h ([1]; Lewis, rat, plasma, po, 3 mg/kg, day 21, time 1, read-out: Mean Concentration (average plasma concentration)): 28.7 ng/mL
- concentration at 2 h ([1]; Lewis, rat, plasma, po, 3 mg/kg, day 21, time 2, read-out: Mean Concentration (average plasma concentration)): 37.5 ng/mL
- concentration at 4 h ([1]; Lewis, rat, plasma, po, 3 mg/kg, day 21, time 4, read-out: Mean Concentration (average plasma concentration)): 45.8 ng/mL
- concentration at 6 h ([1]; Lewis, rat, plasma, po, 3 mg/kg, day 21, time 6, read-out: Mean Concentration (average plasma concentration)): 47 ng/mL
- concentration at 8 h ([1]; Lewis, rat, plasma, po, 3 mg/kg, day 21, time 8, read-out: Mean Concentration (average plasma concentration)): 40.6 ng/mL
- concentration at 24 h ([1]; Lewis, rat, plasma, po, 3 mg/kg, day 21, time 24): 12.2 ng/mL
- AUC ([1]; Lewis, rat, plasma, po, CIA-induced animals, day 21, 3 mg/kg, average, read-out: AUClnf (Mean)): 904 ng·h/mL
- Plasma Concentration ([1]; day 0, 0.25 h, individual test subjects, 3 mg/kg): 28.7 ng/mL and 12.9 ng/mL and 8.85 ng/mL
- Plasma Concentration ([1]; day 0, 0.5 h, individual test subjects, 3 mg/kg): 39.3 ng/mL and 25.4 ng/mL and 19.5 ng/mL
- Plasma Concentration ([1]; day 0, 1 h, individual test subjects, 3 mg/kg): 78.4 ng/mL and 40.1 ng/mL and 34.7 ng/mL
- Plasma Concentration ([1]; day 0, 2 h, individual test subjects, 3 mg/kg): 66.0 ng/mL and 62.7 ng/mL
- Plasma Concentration ([1]; day 0, 4 h, individual test subjects, 3 mg/kg): 77.9 ng/mL and 80.7 ng/mL
- Plasma Concentration ([1]; day 0, 6 h, individual test subjects, 3 mg/kg): 77.1 ng/mL and 82.6 ng/mL
- Plasma Concentration ([1]; day 0, 8 h, individual test subjects, 3 mg/kg): 76.1 ng/mL and 74.4 ng/mL
- Plasma Concentration ([1]; day 0, 24 h, individual test subjects, 3 mg/kg): 35.6 ng/mL and 14.1 ng/mL and 17.3 ng/mL
- Plasma Concentration ([1]; day 21, 0.25 h, individual test subjects, 3 mg/kg): 14.7 ng/mL and 13.1 ng/mL
- Plasma Concentration ([1]; day 21, 0.5 h, individual test subjects, 3 mg/kg): 20.9 ng/mL and 19.8 ng/mL
- Plasma Concentration ([1]; day 21, 1 h, individual test subjects, 3 mg/kg): 27.0 ng/mL and 25.5 ng/mL
- Plasma Concentration ([1]; day 21, 2 h, individual test subjects, 3 mg/kg): 45.6 ng/mL and 33.8 ng/mL
- Plasma Concentration ([1]; day 21, 4 h, individual test subjects, 3 mg/kg): 44.3 ng/mL and 44.7 ng/mL
- Plasma Concentration ([1]; day 21, 6 h, individual test subjects, 3 mg/kg): 51.2 ng/mL and 45.7 ng/mL
- Plasma Concentration ([1]; day 21, 8 h, individual test subjects, 3 mg/kg): 45.6 ng/mL and 45.3 ng/mL
- Plasma Concentration ([1]; day 21, 24 h, individual test subjects, 3 mg/kg): 6.60 ng/mL and 15.6 ng/mL and 14.4 ng/mL
- Effect on gastrointestinal villus morphology or goblet cell number [2]: no deleterious effect
- duration of exposure above the free EC50 BD2 BRD4 [3]: 24 h
